Source: BindingDB's records for doi:10.1016/j.bmcl.2006.07.074 (Boehringer Ingelheim Pharmaceuticals, 2006)

Target: DNA-directed RNA polymerase II (Bos taurus)
Experiment: Inhibition of calf thymus DNA dependent RNA polymerase 2

IC50: > 125 µM
Structure (SMILES): O=C(O)c1ccc2c(C3CCCCC3)c(-c3ccoc3)[nH]c2c1 [3-cyclohexyl-2-(furan-3-yl)-1H-indole-6-carboxylic acid]
